Measurements: US20100298141A1, “SUBSTITUTED PYRIDINE N-OXIDE HERBICIDES” (E. I. DU PONT DE NEMOURS AND COMPANY, priority 2007, published 2010)

How the values were obtained:
[1] = tested on: common sowthistle; assay: Test F preemergence test; type: in vivo, Sonchus oleraceous; conditions: scale 0 to 100
Excerpt: (§1) Seeds of plant species selected from bermudagrass (Cynodon dactylon), Surinam grass (Brachiaria decumbens), large crabgrass (Digitaria sanguinalis), green foxtail (Setaria viridis), goosegrass (Eleusine indica), johnsongrass (Sorghum halepense), kochia (Kochia scoparia), pitted morningglory (Ipomoea lacunosa), purple nutsedge (Cyperus rotundus), common ragweed (Ambrosia elation), mustard (Brassica nigra), guineagrass (Panicum maximum), […] (Paspalum dilatatum), barnyardgrass (Echinochloa crus-galli), southern sandbur (Cenchrus echinatus), common sowthistle (Sonchus oleraceous), prickly […] spinosa), Italian ryegrass (Lolium multiflorum), common purslane (Portulaca oleracea), broadleaf signalgrass (Brachiaria platyphylla), common groundsel (Senecio vulgaris), common chickweed (Stellaria media), Virginia dayflower (Commelina virginica), annual bluegrass (Poa annua), naked crabgrass (Digitaria nuda), […] cochinchinensis), quackgrass (Elytrigia repens), Canada horseweed (Conyza canadensis), field bindweed (Convolvulus arvensis), […] (Bidens bipinnata), common mallow (Malva sylvestris), Russian thistle (Salsola kali), and sugarcane (Saccharum officinarum) were planted and treated preemergence with test chemicals formulated in a non-phytotoxic solvent mixture which included a surfactant. At a different time, sugarcane was treated with postemergence applications of some of the test chemicals formulated in the same manner. Plants were approximately 3- to 4-leaf stage for the postemergence treatments. Treated plants and controls were maintained in a greenhouse for 14 to 21 days, after which time all species were compared to controls and visually evaluated. […] A dash (-) response means no test result.

[2] = tested on: spanishneedles; assay: Test F preemergence test; type: in vivo, Bidens bipinnata; conditions: scale 0 to 100
Excerpt: as §1

[3] = tested on: windgrass; assay: Test C pre-/postemergence test; type: in vivo, Apera spica-venti; conditions: Postemergence; for Plant response rating, Windgrass: scale 0 to 100, 0 no effect, 100 complete control
Excerpt: Seeds of plant species selected from blackgrass (Alopecurus myosuroides), downy brome (Bromus tectorum), green foxtail (Setaria viridis), Italian ryegrass (Lolium multiflorum), wheat (Triticum aestivum), wild oat (Avena fatua), catchweed bedstraw (Galium aparine), Russian thistle (Salsola kali), […] (Cynodon dactylon), Surinam grass (Brachiaria decumbens), cocklebur (Xanthium strumarium), corn (Zea mays), crabgrass (Digitaria sanguinalis), woolly cupgrass (Eriochloa villosa), giant foxtail (Setaria faberii), Goosegrass (Eleusin indica), johnsongrass (Sorghum halepense), kochia (Kochia scoparia), lambsquarters (Chenopodium album), morningglory (Ipomoea coccinea), eastern black nightshade (Solanum ptycanthum), yellow nutsedge (Cyperus esculentus), pigweed (Amaranthus retroflexus), common ragweed (Ambrosia elation), soybean (Glycine max), common (oilseed) sunflower (Helianthus annuus), and velvetleaf (Abutilon theophrasti) were planted and treated preemergence with test chemicals formulated in a non-phytotoxic solvent mixture which included a surfactant. At the same time, plants selected from these crop and weed species and also winter barley (Hordeum vulgare), canarygrass (Phalaris minor), and chickweed (Stellaria media) were treated with postemergence applications of some of the test chemicals formulated in the same manner. Plants ranged in height from 2 to 18 cm (1- to 4-leaf stage) for postemergence treatments. […] At time of treatment, test pots were flooded to 3 cm above the soil surface, treated by application of test compounds directly to the paddy water, and then maintained at that water depth for the duration of the test. […] A dash (-) response means no test result.

[4] = tested on: winter barley; assay: Test C postemergence test; type: in vivo, Hordeum vulgare; conditions: for Plant response rating (0 to 100), Barley: 31 g ai/ha; for Plant response rating, Barley: scale 0 to 100, 0 no effect, 100 complete control
Experimental: (§2) At the same time, plants selected from these crop and weed species and also winter barley (Hordeum vulgare), canarygrass (Phalaris minor), and chickweed (Stellaria media) were treated with postemergence applications of some of the test chemicals formulated in the same manner. Plants ranged in height from 2 to 18 cm (1- to 4-leaf stage) for postemergence treatments. […] At time of treatment, test pots were flooded to 3 cm above the soil surface, treated by application of test compounds directly to the paddy water, and then maintained at that water depth for the duration of the test. Treated plants and controls were maintained in a greenhouse for 13 to 15 days, after which time all species were compared to controls and visually evaluated. […] A dash (-) response means no test result.

[5] = tested on: canarygrass; assay: Test C postemergence test; type: in vivo, Phalaris minor; conditions: for Plant response rating (0 to 100), Canarygrass: 31 g ai/ha; for Plant response rating, Canarygrass: scale 0 to 100, 0 no effect, 100 complete control
Experimental: as §2

[6] = tested on: chickweed; assay: Test C postemergence test; type: in vivo, Stellaria media; conditions: for Plant response rating (0 to 100), Chickweed: 31 g ai/ha; for Plant response rating, Chickweed: scale 0 to 100, 0 no effect, 100 complete control
Experimental: as §2

[7] = tested on: Russian thistle; assay: Test F preemergence test; type: in vivo, Salsola kali; conditions: scale 0 to 100
Excerpt: as §1

Compound | Plant response rating, Sowthistle ([1]; 16 g ai/ha, preemergence) | Sowthistle plant response rating ([1]; 125 g ai/ha, preemergence) | Plant response rating, Sowthistle ([1]; Preemergence, 62 g ai/ha) | Plant response rating, Sowthistle ([1]; Preemergence, 31 g ai/ha) | Plant response rating, Spanishneedles ([2]; 16 g ai/ha, preemergence) | Spanishneedles plant response rating ([2]; 125 g ai/ha, preemergence) | Plant response rating, Spanishneedles ([2]; Preemergence, 62 g ai/ha) | Plant response rating, Spanishneedles ([2]; Preemergence, 31 g ai/ha) | Plant response rating (0 to 100), Windgrass ([3]; 31 g ai/ha) | Plant response rating (0 to 100), Windgrass ([3]; 62 g ai/ha) | Plant response rating, Windgrass ([3]; 125 g ai/ha) | Plant response rating, Windgrass ([3]; 250 g ai/ha) | Plant response rating (0 to 100), Barley [4] | Plant response rating, Barley ([4]; 62 g ai/ha) | Plant response rating, Barley ([4]; 125 g ai/ha) | Plant response rating, Barley ([4]; 250 g ai/ha) | Plant response rating (0 to 100), Canarygrass [5] | Plant response rating, Canarygrass ([5]; 62 g ai/ha) | Plant response rating, Canarygrass ([5]; 125 g ai/ha) | Plant response rating, Canarygrass ([5]; 250 g ai/ha) | further results
Cn1nc(C(F)(F)F)c(C[S+]([O-])c2ccc(Cl)c[n+]2[O-])c1OCC(F)F (stereo not shown) [Compound 85] | 0 | 100 | 100 | 0 | 50 | 100 | 100 | 50 | – | – | – | – | – | – | – | – | – | – | – | – | –
CCn1nc(C(F)(F)F)c(CS(=O)(=O)c2cc(C)cc[n+]2[O-])c1OCC(F)(F)F [Compound 64] | – | 100 | 100 | 0 | 30 | 60 | 40 | – | 0 | 90 | 98 | 100 | 0 | 0 | 5 | 20 | 0 | 0 | 5 | 10 | Plant response rating (0 to 100), Chickweed [6]: 0; Plant response rating, Chickweed ([6]; 62 g ai/ha): 0; Plant response rating, Chickweed ([6]; 125 g ai/ha): 0; Plant response rating, Chickweed ([6]; 250 g ai/ha): 0
CCn1nc(C(F)(F)F)c(C[S+]([O-])c2cc(C)cc[n+]2[O-])c1OCC(F)(F)F (racemic) [Compound 66] | 0 | 100 | 100 | 0 | 15 | 100 | 80 | 65 | – | – | – | – | – | – | – | – | – | – | – | – | –
Cn1nc(C(F)(F)F)c(C[S+]([O-])c2ccc(F)c[n+]2[O-])c1OC(F)F (stereo not shown) [Compound 58] | – | 100 | 100 | 0 | – | 65 | 50 | 50 | 20 | 40 | 70 | 95 | 0 | 0 | 20 | 30 | 0 | 0 | 0 | 0 | Plant response rating (0 to 100), Chickweed [6]: 30; Plant response rating, Chickweed ([6]; 62 g ai/ha): 60; Plant response rating, Chickweed ([6]; 125 g ai/ha): 60; Sowthistle plant response rating ([1]; 250 g ai/ha, preemergence): 100; Spanishneedles plant response rating ([2]; 250 g ai/ha, preemergence): 100
Cn1nc(C(F)(F)F)c(C[S+]([O-])c2cccc[n+]2[O-])c1Cl (stereo not shown) [Compound 8] | – | 100 | – | 65 | – | – | – | – | – | – | – | – | – | – | – | – | – | – | – | – | Sowthistle plant response rating ([1]; 62 g ai/ha, Preemergence): 90; Russian Thistle plant response rating ([7]; 125 g ai/ha, preemergence): 100
CCc1cc[n+]([O-])c(S(=O)(=O)Cc2c(C(F)(F)F)nn(C)c2OCC(F)(F)F)c1 [Compound 60] | – | 100 | 100 | 80 | – | 80 | 80 | 20 | – | – | – | – | – | – | – | – | – | – | – | – | Sowthistle plant response rating ([1]; 250 g ai/ha, preemergence): 100; Spanishneedles plant response rating ([2]; 250 g ai/ha, preemergence): 100
Cc1cc[n+]([O-])c([S+]([O-])Cc2c(C(F)(F)F)nn(C)c2OCC(F)(F)F)c1 (racemic) [Compound 30] | – | 100 | – | 100 | – | – | – | – | – | – | – | – | – | – | – | – | – | – | – | – | Sowthistle plant response rating ([1]; 62 g ai/ha, Preemergence): 100; Russian Thistle plant response rating ([7]; 62 g ai/ha, Preemergence): 100; Russian Thistle plant response rating ([7]; 125 g ai/ha, preemergence): 100; Plant response rating, Russian Thistle ([7]; Preemergence, 16 g ai/ha): 100; Plant response rating, Russian Thistle ([7]; Preemergence, 31 g ai/ha): 100
Cc1cc[n+]([O-])c(S(=O)(=O)C(C)c2c(C(F)(F)F)nn(C)c2OC(F)F)c1 (stereo not shown) [Compound 11] | – | 100 | – | 90 | – | – | – | – | – | – | – | – | – | – | – | – | – | – | – | – | Sowthistle plant response rating ([1]; 62 g ai/ha, Preemergence): 100; Russian Thistle plant response rating ([7]; 62 g ai/ha, Preemergence): 100; Russian Thistle plant response rating ([7]; 125 g ai/ha, preemergence): 100; Plant response rating, Russian Thistle ([7]; Preemergence, 31 g ai/ha): 100
Cc1cc[n+]([O-])c([S+]([O-])Cc2c(C(F)(F)F)nn(C)c2Cl)c1 (racemic) [Compound 20] | 65 | – | – | 0 | – | – | – | – | – | – | – | – | – | – | – | – | – | – | – | – | Plant response rating, Sowthistle ([1]; 8 g ai/ha, preemergence): 0; Sowthistle plant response rating ([1]; 62 g ai/ha, Preemergence): 50; Plant response rating, Russian Thistle ([7]; Preemergence, 16 g ai/ha): 0
Cn1nc(C(F)(F)F)c(C[S+]([O-])c2ccc(F)c[n+]2[O-])c1OCC(F)(F)F (stereo not shown) [Compound 67] | 80 | 100 | 100 | 80 | 0 | 98 | 90 | 65 | 30 | 100 | 100 | 100 | 0 | 10 | 50 | 50 | 0 | 0 | 10 | 10 | Plant response rating (0 to 100), Chickweed [6]: 0; Plant response rating, Chickweed ([6]; 62 g ai/ha): 60; Plant response rating, Chickweed ([6]; 125 g ai/ha): 70; Plant response rating, Chickweed ([6]; 250 g ai/ha): 95
Cn1nc(C(F)(F)F)c(C[S+]([O-])c2ccc(Cl)c[n+]2[O-])c1OCC(F)(F)F (racemic) [Compound 62] | 0 | 98 | 98 | 95 | 30 | 100 | 75 | 65 | 70 | 80 | 90 | 100 | 0 | 0 | 10 | 40 | 0 | 0 | 0 | 10 | Plant response rating (0 to 100), Chickweed [6]: 0; Plant response rating, Chickweed ([6]; 62 g ai/ha): 0; Plant response rating, Chickweed ([6]; 125 g ai/ha): 0; Plant response rating, Chickweed ([6]; 250 g ai/ha): 70
